Results on 16 molecules are retold here after patent US20140274688A1, “MOLECULES HAVING CERTAIN PESTICIDAL UTILITIES, AND INTERMEDIATES, COMPOSITIONS, AND PROCESSES RELATED THERETO” (DOW AGROSCIENCES LLC, priority 2013, published 2014).

Series [1] deals with Cabbage Looper (Trichoplusia ni) ("CL"). The series can be described thus: Bioassay on Cabbage Looper (CL), 128-well diet tray assay, percent mortality. Type of series: in vivo. The settings on record: for pest or weed control at 50 µg/cm2: Trichoplusia ni, read-out: CL; for CL rating (percent mortality class): Cabbage Looper, 128-well diet tray assay. An excerpt:
(§1) Bioassays on Beet Armyworm (Spodoptera exigua) (“BAW”) and Cabbage Looper (Trichoplusia ni) (“CL”)
(§2) BAW has few effective parasites, diseases, or predators to lower its population. BAW infests many weeds, trees, grasses, legumes, and field crops. In various places, it is of economic concern upon asparagus, cotton, corn, soybeans, tobacco, alfalfa, sugar beets, peppers, tomatoes, potatoes, onions, peas, sunflowers, and citrus, among other plants. The Cabbage Looper is a member of the moth family Noctuidae. It is found throughout the world. It is attacks cabbage, cauliflower, broccoli, Brussel sprouts, tomatoes, cucumbers, potatoes, kale, turnips, mustard, peppers, eggplant, watermelons, melons, squash, cantaloupe, peas, beans, collards, lettuce, spinach, celery, parsley, beets, peas, alfalfa, soybeans, and cotton. This species is very destructive to plants due to its voracious consumption of leaves. In the case of cabbage, however, they feed not only on the wrapper leaves, but also may bore into the developing head. The larvae consume three times their weight in plant material daily. The feeding sites are marked by large accumulations of sticky, wet fecal material.
(§3) Consequently, because of the above factors control of these pests is important.
(§4) Certain molecules disclosed in this document were tested against BAW and CEW using procedures described in the following examples. In the reporting of the results, the “BAW & CL Rating Table” was used (See Table Section).
Bioassays on Cabbage Looper in CL
(§5) Trays were covered with a clear self-adhesive cover and held at 25° C., 14:10 light-dark for five to seven days. Percent mortality was recorded for the larvae in each well; activity in the eight wells was then averaged. The results are indicated in the table entitled “Table ABC: Biological Results” (See Table Section).

Series [2] concerns Beet Armyworm (Spodoptera exigua) ("BAW"). Kind of series: Bioassay on Beet Armyworm (BAW), 128-well diet tray assay, percent mortality. Type of series: in vivo. Conditions: for pest or weed control at 50 µg/cm2: Spodoptera exigua, read-out: BAW; for BAW rating (percent mortality class): Beet Armyworm, 128-well diet tray assay.
Excerpt: as §1, §2, §3, §4, §5

The structures appear in SMILES notation.

Consider `Cc1ccc(C(C)C)c(N2/C(=N/C(=O)NCCc3ccc(-c4ncn(-c5ccc(OC(F)(F)F)cc5)n4)cc3)SCC2C)c1` (centres unmarked) [P58, (Z)-1-(3-(2-isopropyl-5-methylphenyl)-4-methylthiazolidin-2-ylidene)-3-(4-(1-(4-(trifluoromethoxy)phenyl)-1H-1,2,4-triazol-3-yl)phenethyl)urea], for which the pest or weed control at 50 µg/cm2 in series [1] and in series [2] was 50 to 100% each time.

In the case of `Cc1ccc(C(C)C)c(N2C(=O)CS/C2=N\C(=O)NCCCCc2cccc(-c3ncn(-c4ccc(OC(F)(F)F)cc4)n3)c2)c1` [P176, (Z)-1-(3-(2-isopropyl-5-methylphenyl)-4-oxothiazolidin-2-ylidene)-3-(4-(3-(1-(4-(trifluoromethoxy)phenyl)-1H-1,2,4-triazol-3-yl)phenyl)butyl)urea], the pest or weed control at 50 µg/cm2 in series [1] and in series [2] was 50 to 100% each time.

For `CCC(CNC(=O)/N=C1\SCC(=O)N1c1cc(C)ccc1C(C)C)c1ccc(-c2ncn(-c3ccc(OC(F)(F)F)cc3)n2)cc1` (centres unmarked) [P364, (Z)-1-(3-(2-isopropyl-5-methylphenyl)-4-oxothiazolidin-2-ylidene)-3-(2-(4-(1-(4-(trifluoromethoxy)phenyl)-1H-1,2,4-triazol-3-yl)phenyl)butyl)urea], the pest or weed control at 50 µg/cm2 in series [1] and in series [2] was 50 to 100% each time.

With `CC(C)c1ccccc1N1C(=O)CS/C1=N\C(=O)NCCc1cccc(-c2ncn(-c3ccc(OC(F)(F)F)cc3)n2)c1` [P76, (Z)-1-(3-(2-isopropylphenyl)-4-oxothiazolidin-2-ylidene)-3-(3-(1-(4-(trifluoromethoxy)phenyl)-1H-1,2,4-triazol-3-yl)phenethyl)urea], the pest or weed control at 50 µg/cm2 in series [1] and in series [2] was 50 to 100% in each case.

For the molecule `Cc1ccccc1N1C(=O)CS/C1=N\C(=O)NCCc1cccc(-c2ncn(-c3ccc(OC(F)(F)F)cc3)n2)c1` [P74, (Z)-1-(4-oxo-3-(o-tolyl)thiazolidin-2-ylidene)-3-(3-(1-(4-(trifluoromethoxy)phenyl)-1H-1,2,4-triazol-3-yl)phenethyl)urea], the pest or weed control at 50 µg/cm2 in series [1] and in series [2] was 50 to 100% each time.

For the molecule `COc1ccc(C(C)C)c(N2C(=O)CS/C2=N\C(=O)NCCCCc2ccc(-c3ncn(-c4ccc(OC(F)(F)F)cc4)n3)cc2)c1` [P156, (Z)-1-(3-(2-isopropyl-5-methoxyphenyl)-4-oxothiazolidin-2-ylidene)-3-(4-(4-(1-(4-(trifluoromethoxy)phenyl)-1H-1,2,4-triazol-3-yl)phenyl)butyl)urea], the pest or weed control at 50 µg/cm2 in series [1] and in series [2] was 50 to 100% each time.

With `CCc1cccc(C)c1NC(=S)NC(=O)NC1CC1c1ccc(-c2ncn(-c3ccc(OC(F)(F)F)cc3)n2)cc1` (centres unmarked) [F24, N-(2-ethyl-6-methylphenyl)-N′-[2-(4-{1-[4-(trifluoromethoxy)phenyl]-1H-1,2,4-triazol-3-yl}phenyl)cyclopropyl]dicarbonimidothioic diamide], the “CL rating (percent mortality class)” value in series [1] was “A (50-100)”. In addition, the “BAW rating (percent mortality class)” value in series [2] is recorded as “A (50-100)”.

`CC(C)c1cc(F)ccc1N1C(=O)CS/C1=N\C(=O)NCCCCc1cccc(-c2ncn(-c3ccc(OC(F)(F)F)cc3)n2)c1` [P181, (Z)-1-(3-(4-fluoro-2-isopropylphenyl)-4-oxothiazolidin-2-ylidene)-3-(4-(3-(1-(4-(trifluoromethoxy)phenyl)-1H-1,2,4-triazol-3-yl)phenyl)butyl)urea]: the pest or weed control at 50 µg/cm2 in series [1] and in series [2] was 50 to 100% throughout.

Consider `Cc1ccc(C(C)C)c(N2CC(C)CS/C2=N\C(=O)NCCc2ccc(-c3ncn(-c4ccc(OC(F)(F)F)cc4)n3)cc2)c1` (centres unmarked) [P64, (Z)-1-(3-(2-isopropyl-5-methylphenyl)-5-methyl-1,3-thiazinan-2-ylidene)-3-(4-(1-(4-(trifluoromethoxy)phenyl)-1H-1,2,4-triazol-3-yl)phenethyl)urea], for which the pest or weed control at 50 µg/cm2 in series [1] and in series [2] was 50 to 100% each time.

Regarding `Cc1ccc(C(C)C)c(N2C(=O)CS/C2=N\C(=O)NCc2ccc(-c3ncn(-c4ccc(OC(F)(F)C(F)(F)F)cc4)n3)cc2)c1` [F19, (Z)-1-(3-(2-isopropyl-5-methylphenyl)-4-oxothiazolidin-2-ylidene)-3-(4-(1-(4-(perfluoroethoxy)phenyl)-1H-1,2,4-triazol-3-yl)benzyl)urea], the “CL rating (percent mortality class)” value in series [1] is recorded as “A (50-100)”. In series [2], the “BAW rating (percent mortality class)” value is “A (50-100)”.

Consider `CC(C)c1ccccc1NC(=S)NC(=O)NC1CC1c1ccc(-c2ncn(-c3ccc(OC(F)(F)F)cc3)n2)cc1` (centres unmarked) [F22, N-[2-(propan-2-yl)phenyl]-N′-[2-(4-{1-[4-(trifluoromethoxy)phenyl]-1H-1,2,4-triazol-3-yl}phenyl)cyclopropyl]dicarbonimidothioic diamide], for which, in series [1], the “CL rating (percent mortality class)” value is “A (50-100)”. The “BAW rating (percent mortality class)” value in series [2] is “A (50-100)”.

`Cc1ccc(C(C)C)c(N2CCS/C2=N\C(=O)NC2CC2c2ccc(-c3ncn(-c4ccc(OC(F)(F)F)cc4)n3)cc2)c1` (centres unmarked) [F34, (Z)-1-(3-(2-isopropyl-5-methylphenyl)thiazolidin-2-ylidene)-3-(2-(4-(1-(4-(trifluoromethoxy)-phenyl)-1H-1,2,4-triazol-3-yl)phenyl)cyclopropyl)urea]: the “CL rating (percent mortality class)” value in series [1] is given as “A (50-100)”. For the same molecule, the “BAW rating (percent mortality class)” value in series [2] is recorded as “A (50-100)”.

As for `COc1ccc(N2C(=O)CS/C2=N\C(=O)NCc2ccc(-c3ncn(-c4ccc(OC(F)(F)F)cc4)n3)cc2)c(C)c1` [P6, (Z)-1-(3-(4-methoxy-2-methylphenyl)-4-oxothiazolidin-2-ylidene)-3-(4-(1-(4-(trifluoromethoxy)phenyl)-1H-1,2,4-triazol-3-yl)benzyl)urea], the pest or weed control at 50 µg/cm2 in series [1] and in series [2] was 50 to 100% in each case.

In the case of `Cc1ccc(C(C)C)c(NC(=S)NC(=O)NC2CC2c2ccc(-c3ncn(-c4ccc(OC(F)(F)F)cc4)n3)cc2)c1` (centres unmarked) [F28, N-[5-methyl-2-(propan-2-yl)phenyl]-N′-[2-(4-{1-[4-(trifluoromethoxy)phenyl]-1H-1,2,4-triazol-3-yl}phenyl)cyclopropyl]dicarbonimidothioic diamide], the “CL rating (percent mortality class)” value in series [1] was “A (50-100)”. For the same molecule, the “BAW rating (percent mortality class)” value in series [2] is on record as “A (50-100)”.

For `Cc1ccc(C(C)C)c(N2C(=O)CS/C2=N\C(=O)NC(C)Cc2ccc(-c3ncn(-c4ccc(OC(F)(F)F)cc4)n3)cc2)c1` (centres unmarked) [F8, (Z)-1-(3-(2-isopropyl-5-methylphenyl)-4-oxothiazolidin-2-ylidene)-3-(1-(4-(1-(4-(trifluoromethoxy)phenyl)-1H-1,2,4-triazol-3-yl)phenyl)propan-2-yl)urea], in series [1], the “CL rating (percent mortality class)” value is “A (50-100)”. In addition, in series [2], the “BAW rating (percent mortality class)” value is “A (50-100)”.

As for `CCCc1ccc(C)cc1N1C(=O)CS/C1=N\C(=O)NCCCc1cccc(-c2ncn(-c3ccc(OC(F)(F)F)cc3)n2)c1` [P125, (Z)-1-(3-(5-methyl-2-propylphenyl)-4-oxothiazolidin-2-ylidene)-3-(3-(3-(1-(4-(trifluoromethoxy)phenyl)-1H-1,2,4-triazol-3-yl)phenyl)propyl)urea], the pest or weed control at 50 µg/cm2 in series [1] and in series [2] was 50 to 100% in each case.
